The source of these data is patent publication US20230131427A1, “FUNGICIDAL COMPOSITIONS” (SYNGENTA CROP PROTECTION AG, priority 2020, published 2023).

The structures appear in SMILES notation. Values joined by “and” are separate entries in the source; they are usually repeats but may differ in a detail not shown here. Equal values may be shown once. Read-outs that look alike come from different tables or passages of the source.

One may read the pest or weed control as how far the test organism was held down. A higher pest or weed control goes with a strong effect. A word on the melting point: it is the temperature of the solid-liquid transition. The inhibition of growth is the relative decrease from the control value, in per cent. Read a high inhibition of growth as strong suppression.

Data set [1] relates to Puccinia recondita f. sp. tritici. Briefly: Puccinia recondita f. sp. tritici / wheat / leaf disc preventative (brown rust). The note with it: foliar, vs untreated control. It counts as in vivo. On the procedure:
(§1) Leaf disks or leaf segments of various plant species are cut from plants grown in a greenhouse. The cut leaf disks or segments are placed in multiwell plates (24-well format) onto water agar. The leaf disks are sprayed with a test solution before (preventative) or after (curative) inoculation. Compounds to be tested are prepared as DMSO solutions (max. 10 mg/mL) which are diluted to the appropriate concentration with 0.025% Tween20 just before spraying. The inoculated leaf disks or segments are incubated under defined conditions (temperature, relative humidity, light, etc.) according to the respective test system. A single evaluation of disease level is carried out 3 to 14 days after inoculation, depending on the pathosystem. Percent disease control relative to the untreated check leaf disks or segments is then calculated.
Wheat leaf segments cv. Kanzler are placed on agar in multiwell plates (24-well format) and sprayed with the formulated test compound diluted in water. The leaf disks are inoculated with a spore suspension of the fungus 1 day after application. The inoculated leaf segments are incubated at 19° C. and 75% rh under a light regime of 12 h light/12 h darkness in a climate cabinet and the activity of a compound is assessed as percent disease control compared to untreated when an appropriate level of disease damage appears in untreated check leaf segments (7-9 days after application).

In data set [2] the test system is Phakopsora pachyrhizi. Put plainly: Phakopsora pachyrhizi / soybean / leaf disc preventative (Asian soybean rust). It counts as in vivo. The note with it: foliar, 288 h, vs untreated control. As to the method: as §1
Soybean leaf disks are placed on agar in multiwell plates (24-well format) and sprayed with test solutions. After drying, the leaf disks are inoculated with a spore suspension of the fungus. After appropriate incubation the activity of a compound is assessed approx.12 dpi (days after inoculation) as preventive fungicidal activity.

Data set [3] concerns Glomerella lagenarium (Colletotrichum lagenarium). Put plainly: Glomerella lagenarium (Colletotrichum lagenarium) liquid culture / cucumber / preventative (anthracnose). Format: cell-based. Particulars: Colletotrichum orbiculare, vs untreated control. As to the method:
Mycelia fragments or conidia suspensions of a fungus prepared either freshly from liquid cultures of the fungus or from cryogenic storage, are directly mixed into nutrient broth. DMSO solutions of the test compound (max. 10 mg/mL) are diluted with 0.025% Tween20 by a factor of 50 and 10 μl of this solution is pipetted into a microtiter plate (96-well format). The nutrient broth containing the fungal spores/mycelia fragments is then added to give an end concentration of the tested compound. The test plates are incubated in the dark at 24° C. and 96% relative humidity. The inhibition of fungal growth is determined photometrically after 2 to 7 days, depending on the pathosystem, and percent antifungal activity relative to the untreated check is calculated.
Conidia of the fungus from cryogenic storage are directly mixed into nutrient broth (PDB potato dextrose broth). After placing a (DMSO) solution of test compound into a microtiter plate (96-well format), the nutrient broth containing the fungal spores is added.

In data set [4] the test system is Puccinia recondita f. sp. tritici. Briefly: Puccinia recondita f. sp. tritici / wheat / leaf disc curative (brown rust). It counts as in vivo. The note with it: foliar, vs untreated control. On the procedure:
Leaf disks or leaf segments of various plant species are cut from plants grown in a greenhouse. The cut leaf disks or segments are placed in multiwell plates (24-well format) onto water agar. The leaf disks are sprayed with a test solution before (preventative) or after (curative) inoculation. […] The inoculated leaf disks or segments are incubated under defined conditions (temperature, relative humidity, light, etc.) according to the respective test system. […] Percent disease control relative to the untreated check leaf disks or segments is then calculated. Wheat leaf segments cv. Kanzler are placed on agar in multiwell plates (24-well format). The leaf segments are inoculated with a spore suspension of the fungus. […] The formulated test compound diluted in water is applied 1 day after inoculation.

The subject of data set [5] is Mycosphaerella arachidis syn. Cercospora arachidicola. Put plainly: Example B4: mixtures, preventative activity against Mycosphaerella arachidis syn. Cercospora arachidicola (brown leaf spot of peanut), liquid culture. It counts as cell-based. The note with it: Mycosphaerella arachidis, component A alone. The text has this: (§2) This occurs whenever the action of an active ingredient combination is greater than the sum of the actions of the individual components. The action to be expected E for a given active ingredient combination obeys the so-called COLBY formula and can be calculated as follows (COLBY, S. R. “Calculating synergistic and antagonistic responses of herbicide combination”. Weeds, Vol. 15, pages 20-22; 1967):
(§3) If the action actually observed (O) is greater than the expected action (E), then the action of the combination is super-additive, i.e. there is a synergistic effect. In mathematical terms, synergism corresponds to a positive value for the difference of (O-E). In the case of purely complementary addition of activities (expected activity), said difference (O-E) is zero. A negative value of said difference (O-E) signals a loss of activity compared to the expected activity.
Conidia of the fungus from cryogenic storage were directly mixed into nutrient broth (PDB potato dextrose broth). A DMSO solution of the test compounds was placed into a microtiter plate (96-well format) and the nutrient broth containing the fungal spores was added to it.
Cercospora arachidicola (Brown leaf spot of peanut). Fungicidal activity was evaluated on a 100-0 scale (100=no disease growth; 0=well completely covered by mycelium).

Data set [6] concerns Glomerella lagenarium syn. Colletotrichum lagenarium. Briefly: Example B1: mixtures, preventative activity against Glomerella lagenarium syn. Colletotrichum lagenarium, liquid culture. The note with it: Colletotrichum orbiculare, component A alone. Format: cell-based. In a few lines: (§4)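 Fungal conidia mixed into potato dextrose broth were added to test compounds or mixtures in DMSO in microtiter wells. Fungicidal activity was scored on a 100-0 scale (100 = no disease growth; 0 = well fully covered by mycelium). Synergy was assessed by the Colby formula, comparing observed (O) with expected (E) action.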

The subject of data set [7] is Septoria tritici. Briefly: Example B3: mixtures, preventative activity against Septoria tritici (leaf blotch), liquid culture. Format: cell-based. Particulars: component A alone. In a few lines: as §4
Data set [8] has as its system Phakopsora pachyrhizi. Briefly: Example B5: preventative activity against Phakopsora pachyrhizi (soybean rust), whole soybean plants sprayed, leaf disks inoculated. Format: in vivo. The note with it: applied alone. In a few lines: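 Soybean plants sprayed 4 weeks after planting at rates in g a.i./ha; leaf disks from the first trifoliate cut 1 day later and inoculated with rust, five repetitions per rate. Scored 11–14 days post-inoculation relative to untreated infested check (100 = no disease, 0 = heavy infestation).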

Data set [9] deals with Septoria glycines. Put plainly: Example B2: mixtures, preventative activity against Septoria glycines (brown spot), liquid culture. Format: cell-based. The note with it: Septoria glycines, component A alone.
Description: as §2, §3
Conidia of the fungus harvested from a fresh culture grown on artificial media, were directly mixed into nutrient broth (PDB potato dextrose broth). A DMSO solution of the test compounds was placed into a microtiter plate (96-well format) and the nutrient broth containing the fungal spores was added to it.
Fungicidal activity was evaluated on a 100-0 scale (100=no disease growth; 0=well completely covered by mycelium).

[10] abbreviates: 0.1 ppm, read-out: Activity (%) A.
The mark [11] stands for this setting: Phakopsora pachyrhizi, foliar, read-out: Observed Activity (%) (% of untreated) against Phakopsora pachyrhizi.
The mark [12] stands for this setting: Phakopsora pachyrhizi, foliar, 4.5 g/ha, read-out: Observed Activity (%) (% of untreated) against Phakopsora pachyrhizi.

`CCC(C)c1ccn(-c2ccc(C)c(O/C(=C\OC)C(=O)OC)c2)n1` (stereo not drawn) [X.02, methyl (Z)-3-methoxy-2-[2-methyl-5-(3-sec-butylpyrazol-1-yl)phenoxy]prop-2-enoate] displayed a melting point of 110 to 113 °C. Further, the pest or weed control at 200 ppm in [1] is not below 80%. In [2], the pest or weed control at 67 ppm is not below 80%. The molecule also displayed an inhibition of growth at 6.7 ppm in data set [3] not below 80%.
The molecule `CO/C=C(\Oc1cc(-n2ccc(OC(C)C)n2)ccc1C)C(=O)OC` [X.03, methyl (Z)-2-[5-(3-isopropoxypyrazol-1-yl)-2-methyl-phenoxy]-3-methoxy-prop-2-enoate] gave a melting point of 94 to 97 °C. Further, the pest or weed control at 200 ppm in [1] was not below 80%. For the same molecule, in data set [2], the pest or weed control at 67 ppm is not below 80%. Moreover, the pest or weed control at 200 ppm in data set [4] is not below 80%. Besides, the inhibition of growth at 6.7 ppm in data set [3] is not below 80%.
For the molecule `CO/C=C(\Oc1cc(-n2ccc(C3CCC3)n2)ccc1C)C(=O)OC` [X.04, methyl (Z)-2-[5-(3-cyclobutylpyrazol-1-yl)-2-methyl-phenoxy]-3-methoxy-prop-2-enoate], the melting point lay in the range of 91 to 94 °C. The molecule also came in with a pest or weed control at 200 ppm in data set [1] not below 80%. The pest or weed control at 67 ppm in data set [2] is not below 80%. Besides, the pest or weed control at 200 ppm in [4] is not below 80%. In data set [3], this molecule registered an inhibition of growth at 6.7 ppm not below 80%.
On to `CO/C=C(\Oc1cc(-n2ccc(CC(C)C)n2)ccc1C)C(=O)OC` [X.05, methyl (Z)-2-[5-(3-isobutylpyrazol-1-yl)-2-methyl-phenoxy]-3-methoxy-prop-2-enoate], for which the melting point is 76 to 80 °C. In addition, the pest or weed control at 200 ppm in data set [1] is not below 80%. In data set [2], this molecule registered a pest or weed control at 67 ppm not below 80%. The molecule further registered a pest or weed control at 200 ppm in data set [4] not below 80%. Besides, the inhibition of growth at 6.7 ppm in [3] was not below 80%.
In turn, `CO/C=C(\Oc1cc(-n2ccc(C(F)(F)F)n2)ccc1C)C(=O)OC` [X.08, methyl (Z)-3-methoxy-2-[2-methyl-5-[3-(trifluoromethyl)pyrazol-1-yl]phenoxy]prop-2-enoate] returned a melting point of 154 to 156 °C. For the same molecule, the inhibition at 0.00625 ppm in data set [5] (0.00625 ppm) was 0%. For the same molecule, in data set [5] (0.025 ppm), the inhibition at 0.025 ppm is 70%. Further, the inhibition at 0.03 ppm in [5] (0.03 ppm) was 70%. The same molecule came in with a pest or weed control at 200 ppm in data set [1] not below 80%. For the same molecule, the pest or weed control at 67 ppm in data set [2] was not below 80%. In addition, in data set [6] (0.03 ppm), the inhibition at 0.03 ppm was determined as 0%. In data set [6] (setting [10]), the inhibition at 0.1 ppm is 0%. The inhibition at 0.00625 ppm in data set [7] (Zymoseptoria tritici, 0.00625 ppm, 100-0 scale) was 0%. Moreover, the inhibition at 0.025 ppm in [7] (Zymoseptoria tritici, 0.025 ppm, 100-0 scale) stood at 70%. In addition, the inhibition at 0.03 ppm in data set [7] (Zymoseptoria tritici, 0.03 ppm, 100-0 scale, read-out: Activity (%) A) is 50%. Also, the inhibition at 0.1 ppm in [7] (Zymoseptoria tritici, 0.1 ppm, 100-0 scale, read-out: Activity (%) A) is 70%. The “Activity (%) A” value in data set [7] (0.025 ppm, 100-0 scale) was determined as 90%. For the same molecule, the inhibition at 2.25 g/ha in [8] (setting [11]) worked out at 1%. Further, in data set [8] (setting [12]), the inhibition at 4.5 g/ha came out at 10%. Also, in data set [8] (18 g/ha), the “Observed Activity (% of untreated) against Phakopsora pachyrhizi” value is 38% and 77%. In addition, in [9] (0.00625 ppm), the inhibition at 0.00625 ppm is 0%. For the same molecule, the inhibition at 0.025 ppm in [9] (0.025 ppm) was 70%. Moreover, in data set [9] (0.03 ppm, read-out: Activity (%) A), the inhibition at 0.03 ppm is 70%. For the same molecule, the inhibition at 0.05 ppm in data set [9] (0.05 ppm) was 90%. Moreover, the inhibition at 0.1 ppm in data set [9] (setting [10]) is 70%. Moreover, the inhibition of growth at 6.7 ppm in [3] was not below 80%.
For the molecule `CCCc1cnn(-c2ccc(C)c(O/C(=C\OC)C(=O)OC)c2)n1` [X.09, methyl (Z)-3-methoxy-2-[2-methyl-5-(4-propyltriazol-2-yl)phenoxy]prop-2-enoate], the inhibition at 0.0025 ppm in data set [5] (0.0025 ppm) worked out at 50%; in [7] (Zymoseptoria tritici, 72 h, 0.0025 ppm), 70%; in data set [9] (0.0025 ppm), 70%. Moreover, the inhibition at 0.005 ppm in data set [5] (0.005 ppm) worked out at 90%; in data set [7] (Zymoseptoria tritici, 72 h, 0.005 ppm), 90%; in [9] (0.005 ppm), 90%. For the same molecule, the pest or weed control at 200 ppm in [1] and in data set [4] was not below 80% in each case. In [2], the pest or weed control at 67 ppm was not below 80%. Also, the inhibition at 2.25 g/ha in data set [8] (setting [11]) was 34%. The inhibition at 4.5 g/ha in [8] (Phakopsora pachyrhizi, foliar, 4.5 g/ha, read-out: Observed Activity (% of untreated) against Phakopsora pachyrhizi) was 94%; in data set [8] (setting [12]), 95%. In addition, in data set [8] (Phakopsora pachyrhizi, foliar, 9 g/ha, read-out: Observed Activity (% of untreated) against Phakopsora pachyrhizi), the inhibition at 9 g/ha came to 97%. The inhibition at 18 g/ha in data set [8] (Phakopsora pachyrhizi, foliar, 18 g/ha, read-out: Observed Activity (% of untreated) against Phakopsora pachyrhizi) is 97%. The “Observed Activity (% of untreated) against Phakopsora pachyrhizi” value in data set [8] (4.5 g/ha) was 93% and 81% and 82%. The molecule also had an inhibition of growth at 6.7 ppm in data set [3] not below 80%.
